Results published in PMC5436585 (ACS chemical biology, 2016).

Target: T1, SltB3 (Pseudomonas aeruginosa, UniProt Q9HX28)
T1 sequence (Q9HX28 33-448): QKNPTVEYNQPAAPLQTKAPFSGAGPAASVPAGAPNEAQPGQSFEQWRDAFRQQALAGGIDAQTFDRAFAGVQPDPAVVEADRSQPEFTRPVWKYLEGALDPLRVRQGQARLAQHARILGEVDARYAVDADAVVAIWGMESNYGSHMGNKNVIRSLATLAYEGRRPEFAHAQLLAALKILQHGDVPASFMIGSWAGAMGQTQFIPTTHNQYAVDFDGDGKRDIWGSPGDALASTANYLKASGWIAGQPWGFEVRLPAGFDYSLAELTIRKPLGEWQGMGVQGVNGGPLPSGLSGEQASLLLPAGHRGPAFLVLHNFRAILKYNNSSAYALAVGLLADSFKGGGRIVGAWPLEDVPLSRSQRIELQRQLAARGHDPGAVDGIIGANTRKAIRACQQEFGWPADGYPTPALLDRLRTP
Assay: LC/MS product quantification, nonlinear regression
Type: biochemical
Settings: 20 mM HEPES, 0.1 M NaCl, 0.1% Triton X, pH 7.0, 25 °C; 8 nM enzyme

In the case of `CO[C@@H]1O[C@H](CO)[C@@H](O[C@@H]2O[C@H](CO)[C@@H](O[C@@H]3O[C@H](CO)[C@@H](O[C@@H]4O[C@H](CO)[C@@H](O)[C@H](O)[C@H]4NC(C)=O)[C@H](O[C@H](C)C(=O)N[C@@H](C)C(=O)N[C@H](CCC(=O)N[C@@H](CCC[C@@H](N)C(=O)O)C(=O)N[C@H](C)C(=O)N[C@H](C)C(=O)O)C(=O)O)[C@H]3NC(C)=O)[C@H](O)[C@H]2NC(C)=O)[C@H](O[C@H](C)C(=O)N[C@@H](C)C(=O)N[C@H](CCC(=O)N[C@@H](CCC[C@@H](N)C(=O)O)C(=O)N[C@H](C)C(=O)N[C@H](C)C(=O)O)C(=O)O)[C@H]1NC(C)=O` [compound 1], the Km is reported as 200 ± 20 µM.
